Here are results for 6 compounds from patent publication US5885824A, “Recombinant genomic clone encoding the histamine H2 receptor, methods for production thereof, and protein produced therefrom” (The Regents of the University of Michigan, priority 1993, dated 1999).

The target in experiment [1] is T1, canine histamine H2 receptor (Canis lupus familiaris, UniProt P17124).
T1 construct: cloning of the entire gene encoding a histamine H2 receptor using cDNA derived from mRNA isolated from a canine gastric cell source; expressed in transfected cells; host or cells: mouse L-cells, permanently transfected (CMVneo vector, G418 selection)
Nature of the experiment: cyclic AMP content of L-cells transfected with CMVneo vector containing the canine histamine H2 receptor gene insert. The format is cell-based. Conditions: for effect on cAMP content: doses as high as 10^-4 M, transfected L-cells.

Experiment [2] has as its target T1, canine histamine H2 receptor. Put plainly: inhibition of [methyl-3H]-tiotidine binding to transformed L-cells. Conditions: for inhibition of [methyl-3H]-tiotidine binding (in words): percent of maximal specific binding. As for the experimental part:
Transformed L-cells were plated and grown to confluence in 2.4×1.7 cm multi-well plates. The culture media was removed and cells were washed twice with Earle's balanced salt solution containing 0.1% bovine serum albumin. An aliquot (36 nCi) of [methyl-^3 H]-tiotidine (87 Ci/mmol; Dupont, Boston Mass.) was added to the culture in the presence of either cimetidine or diphenhydramine and after one hour of incubation, the medium was removed by aspiration. The cells were washed twice with 0.2M phosphate buffered NaCl pH 7.4, lysed with 1% Triton X-100, and the radioactivity was quantified. Maximum binding was determined by incubation of [methyl-^3H]-tiotidine with transformed L-cells in the absence of antagonists and non-specific binding, which was subtracted from total binding to obtain specific binding, was determined as the amount of label remaining bound in the presence of 10^-4 M histamine. The data, presented as percent of maximal specific binding, are from a single experiment and are virtually identical to data obtained in two other experiments.

Entries after “also recorded” stand apart in the source; their conditions may differ.

T1 sequence (P17124 whole entry): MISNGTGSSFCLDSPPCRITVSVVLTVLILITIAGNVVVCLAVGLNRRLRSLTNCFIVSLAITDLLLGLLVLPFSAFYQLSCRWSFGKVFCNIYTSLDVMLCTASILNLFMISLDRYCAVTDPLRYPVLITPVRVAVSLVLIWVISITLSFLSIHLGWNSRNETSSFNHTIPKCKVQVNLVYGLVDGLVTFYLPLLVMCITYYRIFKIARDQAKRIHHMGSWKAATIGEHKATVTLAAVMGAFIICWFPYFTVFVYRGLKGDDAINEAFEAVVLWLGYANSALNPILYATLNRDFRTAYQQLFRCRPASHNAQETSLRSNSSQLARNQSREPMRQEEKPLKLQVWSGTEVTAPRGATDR

With `NCCc1ccc(O)c(O)c1` [dopamine], the “effect on cAMP content” value in experiment [1] was “no effect”.

Turning to `NCCc1c[nH]c2ccc(O)cc12` [Serotonin], in experiment [1], the “effect on cAMP content” value is listed as “no effect”.

In the case of `CN/C(=N/CCSCc1nc[nH]c1C)NC#N` [cimetidine], in experiment [1] (60 min pre-incubation with cimetidine (10^-4 M)), the “effect on histamine cAMP dose-response curve” value is on record as “shifted to the right”. Further, the IC50 in experiment [2] (one hour of incubation, mean±se n=4, read-out: ED50 for displacement of [methyl-3H]-tiotidine binding) was 550 nM. The “inhibition of [methyl-3H]-tiotidine binding (in words)” value in experiment [2] is given as “dose-dependently inhibited label binding”.

For `NCCc1c[nH]cn1` [histamine], in experiment [1] (1 h, read-out: maximum increase in cellular cyclic AMP content), the activation at 10 µM was 217 ± 10%.

As for `CNC[C@H](O)c1ccc(O)c(O)c1` [epinephrine], in experiment [1], the “effect on cAMP content” value was “no effect”.

As to `CN(C)CCOC(c1ccccc1)c1ccccc1` [diphenhydramine], the “inhibition of [methyl-3H]-tiotidine binding (in words)” value in experiment [2] was “inhibited binding only at the very highest dose; also recorded: no ability to inhibit [methyl-^3 H]-tiotidine except with the highest dose”.
